Results taken from patent US20220306647A1, “NOVEL INDOLE-2-CARBOXAMIDES ACTIVE AGAINST THE HEPATITUS B VIRUS (HBV)” (AICURIS GMBH & CO. KG, priority 2019, published 2022).
Like-named read-outs stand apart in the source and are kept apart here.

How the values were obtained:
[1] = target: T1, HBV core protein (C-terminal truncated core protein, 149 amino acids of the N-terminal assembly domain, BODIPY-FL labelled) (UniProt P03146); assay: Biochemical capsid assembly assay (fluorescence quenching)
T1 construct: fused on or other part: A single cysteine added after residue 149, at position 150; It carries the BODIPY-FL maleimide label
T1 sequence (P03146 whole entry, the tested form may be a part): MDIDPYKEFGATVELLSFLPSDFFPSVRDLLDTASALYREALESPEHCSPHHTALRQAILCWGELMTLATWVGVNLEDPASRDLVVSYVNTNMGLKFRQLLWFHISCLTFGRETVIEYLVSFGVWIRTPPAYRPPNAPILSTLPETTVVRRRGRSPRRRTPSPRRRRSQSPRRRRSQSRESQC
Method in brief: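 Fluorescence quenching of BODIPY-FL-labelled core dimers (1.0 to 2.0 μM) in 50 mM HEPES pH 7.5; compounds at 8 concentrations, 0.5 log-unit dilutions from top 100, 31.6 or 10 μM, 0.5% DMSO. Assembly started with NaCl to […]; fluorescence (ex 477/em 525 nm) read after 6 min. EC50 by non-linear regression.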

HBV (HepAD38 cells) = assay: HBV replication assay: determination of HBV DNA from the supernatants of HepAD38 cells; assay type: cell-based; conditions: Hepatitis B virus, 144 h, HBV DNA in HepAD38 supernatant at day 6, qPCR, read-out: Cell activity
Method in brief: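 HepAD38 cells seeded without tetracycline and treated with half-log compound dilutions; tetracycline-treated wells serve as cell control. On day 6, supernatant HBV DNA was purified and quantified by real-time PCR against plasmid standards; EC50 from non-linear regression of relative copy numbers, three experiments in triplicate.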

[2] = assembly started with NaCl, fluorescence read after 6 min, read-out: Assembly activity
[3] = read-out: Assembly activity, assembly started with NaCl, fluorescence read after 6 min

Structure (SMILES): CN(C(=O)c1cnn2c1CN(C(=O)c1cc3ccccc3[nH]1)CC2)C1(COc2cccc(C(=O)O)c2)CC1 [Example 62, 3-({1-[N-methyl-5-(1H-indole-2-carbonyl)-4H,5H,6H,7H-pyrazolo[1,5-a]pyrazine-3-amido]cyclopropyl}methoxy)benzoic acid]
- IC50 [1, 2]: < 5 µM
- EC50 (HBV (HepAD38 cells)): < 100 µM

Structure (SMILES): CN1C(=O)c2c3c(nn2CCC12CC2)CCN(C(=O)c1cc2ccccc2[nH]1)C3 [Example 63, 4′-(1H-indole-2-carbonyl)-13′-methyl-4′, 8′,9′,13′-tetraazaspiro[cyclopropane-1,12′-tricyclo[7.5.0.0^2,]tetradecane]-1′,7′-dien-14′-one]
- IC50 [1, 2]: < 5 µM
- EC50 (HBV (HepAD38 cells)): < 1 µM

Structure (SMILES): CN1C(=O)c2c3c(nn2CCC12CC2)CCN(C(=O)c1cc2cc(F)c(Cl)cc2[nH]1)C3 [Example 64, 4′-(6-chloro-5-fluoro-1H-indole-2-carbonyl)-13′-methyl-4′,8′,9′,13′-tetraazaspiro[cyclopropane-1,12′-tricyclo[7.5.0.0^2, Q]tetradecane]-1′,7′-dien-14′-one]
- IC50 [1, 2]: < 5 µM
- EC50 (HBV (HepAD38 cells)): < 1 µM

Structure (SMILES): CN1C(=O)c2c3c(nn2CCC12CC2)CCN(C(=O)c1cc2c(Cl)cccc2[nH]1)C3 [Example 68, 4′-(4-chloro-1H-indole-2-carbonyl)-13′-methyl-4′, 8′,9′,13′-tetraazaspiro[cyclopropane-1,12′-tricyclo[7.5.0.0^2,7]tetradecane]-1′,7′-dien-14′-one]
- IC50 [1, 2]: < 5 µM
- EC50 (HBV (HepAD38 cells)): < 1 µM

Structure (SMILES): CN(C(=O)c1cnn2c1CN(C(=O)c1cc3c(Cl)cc(Cl)cc3[nH]1)CC2)C1(c2ccc(C(=O)O)cc2)CC1 [Example 69, 4-{1-[N-methyl-5-(4,6-dichloro-1H-indole-2-carbonyl)-4H,5H,6H,7H-pyrazolo[1,5-a]pyrazine-3-amido]cyclopropyl}benzoic acid]
- IC50 [1, 3]: < 5 µM
- EC50 (HBV (HepAD38 cells)): < 1 µM

Structure (SMILES): CCc1cc(F)cc2[nH]c(C(=O)N3CCn4ncc(C(=O)N(C)C5(c6ccc(C(=O)O)cc6)CC5)c4C3)cc12 [Example 74, 4-{1-[N-methyl-5-(4-ethyl-6-fluoro-1H-indole-2-carbonyl)-4H,5H,6H,7H-pyrazolo[1,5-a]pyrazine-3-amido]cyclopropyl}benzoic acid]
- IC50 [1, 2]: < 5 µM
- EC50 (HBV (HepAD38 cells)): < 1 µM

Structure (SMILES): CN(C(=O)c1cnn2c1CN(C(=O)c1cc3c(F)cc(F)cc3[nH]1)CC2)C1(c2ccc(C(=O)O)cc2)CC1 [Example 75, 4-{1-[N-methyl-5-(4,6-difluoro-1H-indole-2-carbonyl)-4H,5H,6H,7H-pyrazolo[1,5-a]pyrazine-3-amido]cyclopropyl}benzoic acid]
- IC50 [1, 2]: < 5 µM
- EC50 (HBV (HepAD38 cells)): < 1 µM

Structure (SMILES): CN(C(=O)c1cnn2c1CN(C(=O)c1cc3c(F)ccc(F)c3[nH]1)CC2)C1(c2ccc(C(=O)O)cc2)CC1 [Example 76, 4-{1-[N-methyl-5-(4,7-difluoro-1H-indole-2-carbonyl)-4H,5H,6H,7H-pyrazolo[1,5-a]pyrazine-3-amido]cyclopropyl}benzoic acid]
- IC50 [1, 2]: < 5 µM
- EC50 (HBV (HepAD38 cells)): < 1 µM

Structure (SMILES): CN(C(=O)c1cnn2c1CN(C(=O)c1cc3cc(F)c(F)cc3[nH]1)CC2)C1(c2ccc(C(=O)O)cc2)CC1 [Example 77, 4-{1-[N-methyl-5-(5,6-difluoro-1H-indole-2-carbonyl)-4H,5H,6H,7H-pyrazolo[1,5-a]pyrazine-3-amido]cyclopropyl}benzoic acid]
- IC50 [1, 2]: < 5 µM
- EC50 (HBV (HepAD38 cells)): < 1 µM

Structure (SMILES): CN(C(=O)c1cnn2c1CN(C(=O)c1cc3c(F)c(F)c(F)cc3[nH]1)CC2)C1(c2ccc(C(=O)O)cc2)CC1 [Example 78, 4-{1-[N-methyl-5-(4,5,6-trifluoro-1H-indole-2-carbonyl)-4H,5H,6H,7H-pyrazolo[1,5-a]pyrazine-3-amido]cyclopropyl}benzoic acid]
- IC50 [1, 2]: < 5 µM
- EC50 (HBV (HepAD38 cells)): < 1 µM

Structure (SMILES): CN1C(=O)c2c3c(nn2CC12CC2)CCN(C(=O)c1cc2cc(F)ccc2[nH]1)C3 [Example 79, 12′-(5-fluoro-1H-indole-2-carbonyl)-4′-methyl-4′,7′, 8′,12′-tetraazaspiro[cyclopropane-1,5′-tricyclo[7.4.0.0^2,7]tridecane]-1′,8′-dien-3′-one]
- IC50 [1, 3]: < 5 µM
- EC50 (HBV (HepAD38 cells)): < 1 µM

Structure (SMILES): CN(C(=O)c1cnn2c1CN(C(=O)c1cc3c(Cl)c(F)ccc3[nH]1)CC2)C1(c2ccc(C(=O)O)cc2)CC1 [Example 80, 4-{1-[N-methyl-5-(4-chloro-5-fluoro-1H-indole-2-carbonyl)-4H,5H,6H,7H-pyrazolo[1,5-a]pyrazine-3-amido]cyclopropyl}benzoic acid]
- IC50 [1, 2]: < 5 µM
- EC50 (HBV (HepAD38 cells)): < 1 µM

Structure (SMILES): CN(C(=O)c1cnn2c1CN(C(=O)c1cc3c(Cl)cc(F)cc3[nH]1)CC2)C1(c2ccc(C(=O)O)cc2)CC1 [Example 81, 4-{1-[N-methyl-5-(4-chloro-6-fluoro-1H-indole-2-carbonyl)-4H,5H,6H,7H-pyrazolo[1,5-a]pyrazine-3-amido]cyclopropyl}benzoic acid]
- IC50 [1, 2]: < 5 µM
- EC50 (HBV (HepAD38 cells)): < 1 µM

Structure (SMILES): Cc1cccc2[nH]c(C(=O)N3CCn4ncc(C(=O)N(C)C5(c6ccc(C(=O)O)cc6)CC5)c4C3)cc12 [Example 82, 4-{1-[N-methyl-5-(4-methyl-1H-indole-2-carbonyl)-4H,5H,6H,7H-pyrazolo[1,5-a]pyrazine-3-amido]cyclopropyl}benzoic acid]
- IC50 [1, 3]: < 5 µM
- EC50 (HBV (HepAD38 cells)): < 1 µM

Structure (SMILES): CCc1cccc2[nH]c(C(=O)N3CCn4ncc(C(=O)N(C)C5(c6ccc(C(=O)O)cc6)CC5)c4C3)cc12 [Example 83, 4-{1-[N-methyl-5-(4-ethyl-1H-indole-2-carbonyl)-4H,5H,6H,7H-pyrazolo[1,5-a]pyrazine-3-amido]cyclopropyl}benzoic acid]
- IC50 [1, 2]: < 5 µM
- EC50 (HBV (HepAD38 cells)): < 1 µM

Structure (SMILES): CN(C(=O)c1cnn2c1CN(C(=O)c1cc3ccccc3[nH]1)CC2)C1(c2cc(C(=O)O)on2)CC1 [Example 84]
- IC50 [1, 3]: < 5 µM
- EC50 (HBV (HepAD38 cells)): < 1 µM

Structure (SMILES): CN1C(=O)c2c3c(nn2CC12CC2)CCN(C(=O)c1cc2c(F)c(F)ccc2[nH]1)C3 [Example 85, 12′-(4,5-difluoro-1H-indole-2-carbonyl)-4′-methyl-4′,7′,8′,12′-tetraazaspiro[cyclopropane-1,5′-tricyclo[7.4.0.0^2,7]tridecane]-1′,8′-dien-3′-one]
- IC50 [1, 2]: < 5 µM
- EC50 (HBV (HepAD38 cells)): < 1 µM

Structure (SMILES): CCN1C(=O)c2c3c(nn2CCC12CC2)CCN(C(=O)c1cc2ccccc2[nH]1)C3 [Example 86, 13′-ethyl-4′-(1H-indole-2-carbonyl)-4′,8′,9′,13′-tetraazaspiro[cyclopropane-1,12′-tricyclo[7.5.0.0^2,7]tetradecane]-1′,7′-dien-14′-one]
- IC50 [1, 2]: < 5 µM
- EC50 (HBV (HepAD38 cells)): < 1 µM

Structure (SMILES): CN1C(=O)c2c3c(nn2CC12CC2)CCN(C(=O)c1cc2c(Cl)c(F)ccc2[nH]1)C3 [Example 87, 12′-(4-chloro-5-fluoro-1H-indole-2-carbonyl)-4′-methyl-4′,7′,8′,12′-tetraazaspiro[cyclopropane-1,5′-tricyclo[7.4.0.0^2,7]tridecane]-1′,8′-dien-3′-one]
- IC50 [1, 3]: < 5 µM
- EC50 (HBV (HepAD38 cells)): < 1 µM

Structure (SMILES): Cc1cc(F)cc2[nH]c(C(=O)N3CCc4nn5c(c4C3)C(=O)N(C)C3(CC3)C5)cc12 [Example 88, 12′-(6-fluoro-4-methyl-1H-indole-2-carbonyl)-4′-methyl-4′,7′,8′,12′-tetraazaspiro[cyclopropane-1,5′-tricyclo[7.4.0.0^2,7]tridecane]-1′,8′-dien-3′-one]
- IC50 [1, 2]: < 5 µM
- EC50 (HBV (HepAD38 cells)): < 1 µM
